Test results: patent US10219516B2, “Molecules having pesticidal utility, and intermediates, compositions, and processes, related thereto” (priority 2015, dated 2019)

Assays:
Type in all cases: in vivo
[1] = test system: Cabbage Looper (Trichoplusia ni, TRIPNI); assay: Bioassay on Cabbage Looper (CL), 128-well diet tray assay; conditions: Trichoplusia ni; Species CL (Cabbage Looper); read-out: CL (Biological Results, rating)
Procedure, shortened: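 Second-instar larvae, one to five per well, placed on artificial diet treated with 50 μg/cm^2 test molecule in 90:10 acetone-water, dried before infestation. Held 5–7 days at 25° C, 14:10 light-dark; percent mortality averaged over eight wells.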

[2] = test system: Yellow Fever Mosquito (Aedes aegypti, AEDSAE); assay: Bioassay on Yellow Fever Mosquito (YFM), 96-well plate larval assay; conditions: Species YFM (Yellow Fever Mosquito)
Procedure, shortened: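 Compound stocks at 4000 ppm in DMSO were diluted with 90:10 water/acetone, and 15 μL aliquots were dispensed into six replicate plates. About 1-day-old larvae in liver-powder water were added per well. Plates were covered and held at room temperature for 3 days before each well was scored for mortality.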

[3] = test system: Beet Armyworm (Spodoptera exigua, LAPHEG); assay: Bioassay on Beet Armyworm (BAW), 128-well diet tray assay; conditions: Species BAW (Beet Armyworm), read-out: BAW (Biological Results, rating)
Procedure, shortened: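 Diet in each of eight wells received 50 μg/cm^2 of test molecule (90:10 acetone-water, dried), then one to five second-instar larvae were added. Mortality (%) was scored after five to seven days at 25° C. under 14:10 light-dark and averaged across the wells.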

| Structure (SMILES) | pest or weed control at 50 µg/cm2 [1] [%] | YFM (Biological Results, rating) [2] | pest or weed control at 50 µg/cm2 [3] [%] |
| --- | --- | --- | --- |
| CNc1ccc(NC(=O)c2cc(NC(=O)[C@H]3[C@H](c4cc(Cl)cc(Cl)c4)C3(Cl)Cl)ccc2Cl)cc1F (relative stereo) [F176, trans-2-Chloro-5-(2,2-dichloro-3-(3,5-dichlorophenyl)cyclopropane-1-carboxamido)-N-(3-fluoro-4-(methylamino)phenyl)benzamide] | 50 to 100 | A (80-100) | 50 to 100 |
| CNc1ccc(NC(=O)c2cc(NC(=O)[C@H]3[C@H](c4cc(Cl)cc(Cl)c4)C3(Cl)Cl)ccc2Cl)c(F)c1 (relative stereo) [F177, trans-2-Chloro-5-(2,2-dichloro-3-(3,5-dichlorophenyl)cyclopropane-1-carboxamido)-N-(2-fluoro-4-(methylamino)phenyl)benzamide] | 50 to 100 | A (80-100) | 50 to 100 |
| COc1c(Cl)cc([C@H]2[C@H](C(=O)Nc3ccc(Cl)c(C(=O)Nc4ccccc4)c3)C2(Cl)Cl)cc1Cl (relative stereo) [F179, trans-2-chloro-5-(2,2-dichloro-3-(3,5-dichloro-4-methoxyphenyl)cyclopropane-1-carboxamido)-N-phenylbenzamide] | 50 to 100 | B (More than 0-Less than 80) | 50 to 100 |
| COc1c(Cl)cc([C@H]2[C@H](C(=O)Nc3ccc(Cl)c(C(=O)Nc4ccc(F)cc4F)c3)C2(Cl)Cl)cc1Cl (relative stereo) [F180, trans-2-Chloro-5-(2,2-dichloro-3-(3,5-dichloro-4-methoxyphenyl)cyclopropane-1-carboxamido)-N-(2,4-difluorophenyl)benzamide] | 50 to 100 | A (80-100) | 50 to 100 |
| N#Cc1cc(F)ccc1NC(=O)c1cc(NC(=O)[C@H]2[C@H](c3ccc(Cl)c(Cl)c3)C2(Cl)Cl)ccc1Cl (relative stereo) [F190, trans-2-Chloro-N-(2-cyano-4-fluorophenyl)-5-(2,2-dichloro-3-(3,4-dichlorophenyl)cyclopropane-1-carboxamido)benzamide] | 50 to 100 | A (80-100) | 50 to 100 |
| O=C(Nc1ccc(I)cc1)c1cc(NC(=O)[C@H]2[C@H](c3cc(Cl)cc(Cl)c3)C2(Cl)Cl)ccc1Cl (relative stereo) [F193, trans-2-Chloro-5-(2,2-dichloro-3-(3,5-dichlorophenyl)cyclopropane-1-carboxamido)-N-(4-iodophenyl)benzamide] | 50 to 100 | B (More than 0-Less than 80) | 50 to 100 |
| O=C(Nc1cccc(I)c1)c1cc(NC(=O)[C@H]2[C@H](c3cc(Cl)cc(Cl)c3)C2(Cl)Cl)ccc1Cl (relative stereo) [F194, trans-2-Chloro-5-(2,2-dichloro-3-(3,5-dichlorophenyl)cyclopropane-1-carboxamido)-N-(3-iodophenyl)benzamide] | 50 to 100 | B (More than 0-Less than 80) | 50 to 100 |
| Cc1cc(N)ccc1NC(=O)c1cc(NC(=O)[C@H]2[C@H](c3cc(Cl)cc(Cl)c3)C2(Cl)Cl)ccc1Cl (relative stereo) [F195, trans-N-(4-Amino-2-methylphenyl)-2-chloro-5-(2,2-dichloro-3-(3,5-dichlorophenyl)cyclopropane-1-carboxamido)benzamide] | 50 to 100 | A (80-100) | 50 to 100 |
| CNc1ccc(NC(=O)c2cc(NC(=O)[C@H]3[C@H](c4cc(Cl)cc(Cl)c4)C3(Cl)Cl)ccc2Cl)c(C)c1 (relative stereo) [F196, trans-2-Chloro-5-(2,2-dichloro-3-(3,5-dichlorophenyl)cyclopropane-1-carboxamido)-N-(2-methyl-4-(methylamino)phenyl)benzamide] | 50 to 100 | A (80-100) | 50 to 100 |
| COc1ccc(NC(=O)c2cc(NC(=O)[C@H]3[C@H](c4cc(Cl)cc(Cl)c4)C3(Cl)Cl)ccc2Cl)cc1N (relative stereo) [F199, trans-N-(3-Amino-4-methoxyphenyl)-2-chloro-5-(2,2-dichloro-3-(3,5-dichlorophenyl)cyclopropane-1-carboxamido)benzamide] | 50 to 100 | A (80-100) | 50 to 100 |
| CNc1cc(NC(=O)c2cc(NC(=O)[C@H]3[C@H](c4cc(Cl)cc(Cl)c4)C3(Cl)Cl)ccc2Cl)ccc1OC (relative stereo) [F200, trans-2-Chloro-5-(2,2-dichloro-3-(3,5-dichlorophenyl)cyclopropane-1-carboxamido)-N-(4-methoxy-3-(methylamino)phenyl)benzamide] | 50 to 100 | B (More than 0-Less than 80) | 50 to 100 |
| Nc1cccc(NC(=O)c2cc(NC(=O)[C@H]3[C@H](c4cc(Cl)cc(Cl)c4)C3(Cl)Cl)ccc2Cl)c1 (relative stereo) [F201, trans-N-(3-Aminophenyl)-2-chloro-5-(2,2-dichloro-3-(3,5-dichlorophenyl)cyclopropane-1-carboxamido)benzamide] | 50 to 100 | A (80-100) | 50 to 100 |
| CNc1cccc(NC(=O)c2cc(NC(=O)[C@H]3[C@H](c4cc(Cl)cc(Cl)c4)C3(Cl)Cl)ccc2Cl)c1 (relative stereo) [F202, trans-2-Chloro-5-(2,2-dichloro-3-(3,5-dichlorophenyl)cyclopropane-1-carboxamido)-N-(3-(methylamino)phenyl)benzamide] | 50 to 100 | A (80-100) | 50 to 100 |
| O=C(Nc1ccc(I)cc1F)c1cc(NC(=O)[C@H]2[C@H](c3cc(Cl)cc(Cl)c3)C2(Cl)Cl)ccc1Cl (relative stereo) [F203, trans-2-Chloro-5-(2,2-dichloro-3-(3,5-dichlorophenyl)cyclopropane-1-carboxamido)-N-(2-fluoro-4-iodophenyl)benzamide] | 50 to 100 | A (80-100) | 50 to 100 |
| O=C(Nc1ccc(I)c(F)c1)c1cc(NC(=O)[C@H]2[C@H](c3cc(Cl)cc(Cl)c3)C2(Cl)Cl)ccc1Cl (relative stereo) [F204, trans-2-Chloro-5-(2,2-dichloro-3-(3,5-dichlorophenyl)cyclopropane-1-carboxamido)-N-(3-fluoro-4-iodophenyl)benzamide] | 50 to 100 | A (80-100) | 50 to 100 |
| Cc1ccc(NC(=O)c2cc(NC(=O)[C@H]3[C@H](c4cc(Cl)cc(Cl)c4)C3(Cl)Cl)ccc2Cl)cc1N (relative stereo) [F205, trans-N-(3-Amino-4-methylphenyl)-2-chloro-5-(2,2-dichloro-3-(3,5-dichlorophenyl)cyclopropane-1-carboxamido)benzamide] | 50 to 100 | B (More than 0-Less than 80) | 50 to 100 |
| CNc1ccc(NC(=O)c2cc(NC(=O)[C@H]3[C@H](c4cc(Cl)cc(Cl)c4)C3(Cl)Cl)ccc2Cl)cc1C (relative stereo) [F206, trans-2-Chloro-5-(2,2-dichloro-3-(3,5-dichlorophenyl)cyclopropane-1-carboxamido)-N-(3-methyl-4-(methylamino)phenyl)benzamide] | 50 to 100 | A (80-100) | 50 to 100 |
| O=C(Nc1ccc(F)cc1)c1cc(NC(=O)[C@H]2[C@H](c3cc(Cl)cc(Cl)c3)C2(Cl)Cl)cc(Cl)c1Cl (relative stereo) [F216, trans-2,3-Dichloro-5-(2,2-dichloro-3-(3,5-dichlorophenyl)cyclopropane-1-carboxamido)-N-(4-fluorophenyl)benzamide] | 50 to 100 | B (More than 0-Less than 80) | 50 to 100 |
| O=C(Nc1ccc(-n2ccnn2)cc1)c1cc(NC(=O)[C@H]2[C@H](c3cc(Cl)cc(Cl)c3)C2(Cl)Cl)ccc1Cl (relative stereo) [F217, trans-N-(4-(1H-1,2,3-Triazol-1-yl)phenyl)-2-chloro-5-(2,2-dichloro-3-(3,5-dichlorophenyl)cyclopropane-1-carboxamido)benzamide] | 50 to 100 | B (More than 0-Less than 80) | 50 to 100 |
| O=C(Nc1ncc(F)cn1)c1cc(NC(=O)[C@H]2[C@H](c3cc(Cl)cc(Cl)c3)C2(Cl)Cl)ccc1Cl (relative stereo) [F222, trans-2-Chloro-5-(2,2-dichloro-3-(3,5-dichlorophenyl)cyclopropane-1-carboxamido)-N-(5-fluoropyrimidin-2-yl)benzamide] | 50 to 100 | A (80-100) | 50 to 100 |
| CNc1ccc(NC(=O)c2cc(NC(=O)[C@H]3[C@H](c4cc(Cl)c(Cl)c(Cl)c4)C3(Cl)Cl)ccc2Cl)c(C)c1 (relative stereo) [F223, trans-2-Chloro-5-(2,2-dichloro-3-(3,4,5-trichlorophenyl)cyclopropane-1-carboxamido)-N-(2-methyl-4-(methylamino)phenyl)benzamide] | 50 to 100 | A (80-100) | 50 to 100 |
